These results are taken from ChEMBL document CHEMBL1148564, “Synthesis and interactions of 7-deoxy-, 10-deacetoxy, and 10-deacetoxy-7-deoxypaclitaxel with NCI/ADR-RES cancer cells and bovine brain microvessel endothelial cells” (Bioorg Med Chem Lett, 2006).

The test system of one assay is MCF7. Kind of assay: Antiproliferative activity against MCF7 breast cancer cell line relative to paclitaxel. Type of assay: functional, Homo sapiens.
Assay [1] deals with T1, Tubulin (Homo sapiens) (UniProt P68371+Q9H4B7+P0DPH7+P68366+Q13509+Q71U36+P04350+Q3ZCM7+P07437+P68363+Q9BQE3+Q6PEY2+Q13885+Q9BVA1+Q9BUF5). The assay can be described thus: Effect on tubulin polymerization by tubulin assembly assay relative to paclitaxel. The class given is protein-complex assay.
The target of assay [2] is T1, Tubulin (Homo sapiens). Kind of assay: Antiproliferative activity against NCI/ADR-RES […] cancer cell line relative to paclitaxel. The class given is functional, cell-based.

In the case of `CC(=O)O[C@H]1C(=O)[C@]2(C)CC[C@H]3OC[C@@]3(OC(C)=O)[C@H]2[C@H](OC(=O)c2ccccc2)[C@]2(O)C[C@H](OC(=O)[C@H](O)[C@@H](NC(=O)c3ccccc3)c3ccccc3)C(C)=C1C2(C)C`, the “Ratio ED50” value in the assay on MCF7 came out at 30; at Tubulin (Homo sapiens) [1], 1.4; at Tubulin (Homo sapiens) [2] it was 1.

As for `CC(=O)O[C@@]12CO[C@@H]1CC[C@@]1(C)C(=O)CC3=C(C)[C@@H](OC(=O)[C@H](O)[C@@H](NC(=O)c4ccccc4)c4ccccc4)C[C@@](O)([C@@H](OC(=O)c4ccccc4)[C@H]21)C3(C)C`, the “Ratio ED50” value amounted to 9 in the assay on MCF7, 2 on Tubulin (Homo sapiens) [1] and 0.21 on Tubulin (Homo sapiens) [2].

In the case of `CC(=O)O[C@@]12CO[C@@H]1C[C@H](O)[C@@]1(C)C(=O)CC3=C(C)[C@@H](OC(=O)[C@H](O)[C@@H](NC(=O)c4ccccc4)c4ccccc4)C[C@@](O)([C@@H](OC(=O)c4ccccc4)[C@H]21)C3(C)C`, the “Ratio ED50” value in the assay on MCF7 was determined as 0.87; on Tubulin (Homo sapiens) [1], 2.2; on Tubulin (Homo sapiens) [2] it was 0.79.
